Results from ChEMBL document CHEMBL1154779, “Synthesis and adrenolytic activity of 1-(1H-indol-4-yloxy)-3-(2-(2-methoxy phenoxy)ethylamino)propan-2-ol analogs and its enantiomers. Part 2” (Eur J Med Chem, 2009).

Experiments:
[1] = tested on: Rattus norvegicus; experiment: Effect on heart rate in anesthetized Wistar rat assessed as QRS complex time at 1 mg/kg, iv after 1 min by electrocardiography; format: functional
[2] = tested on: Rattus norvegicus; experiment: Effect on heart rate in anesthetized Wistar rat assessed as QRS complex time at 1 mg/kg, iv after 5 mins by electrocardiography; format: functional
[3] = tested on: Rattus norvegicus; experiment: Effect on heart rate in anesthetized Wistar rat assessed as QRS complex time at 1 mg/kg, iv after 15 mins by electrocardiography; format: functional
[4] = tested on: Rattus norvegicus; experiment: Effect on heart rate in anesthetized Wistar rat assessed as Q-T intervals time at 1 mg/kg, iv after 1 min by electrocardiography; format: functional
[5] = tested on: Rattus norvegicus; experiment: Effect on heart rate in anesthetized Wistar rat assessed as Q-T intervals time at 1 mg/kg, iv after 5 mins by electrocardiography; format: functional
[6] = tested on: Rattus norvegicus; experiment: Effect on heart rate in anesthetized Wistar rat assessed as heart beats per min at 1 mg/kg, iv after 1 min by electrocardiography; format: functional
[7] = tested on: Rattus norvegicus; experiment: Effect on heart rate in anesthetized Wistar rat assessed as heart beats per min at 1 mg/kg, iv after 5 mins by electrocardiography; format: functional
[8] = tested on: Rattus norvegicus; experiment: Effect on heart rate in anesthetized Wistar rat assessed as heart beats per min at 1 mg/kg, iv after 15 mins by electrocardiography; format: functional
[9] = tested on: Rattus norvegicus; experiment: Antiarrhythmic activity in Wistar rat assessed as inhibition of adrenaline-induced premature ventricular beats at 1 mg/kg, iv administered 15 mins before adrenaline challenge measured after 15 mins by electrocardiography; format: functional; details: Heart
[10] = molecular target: T1, Adrenergic receptor alpha-2 (Rattus norvegicus, UniProt P22086+P19328+P22909); experiment: Displacement of [3H]Clonidine from alpha2 adrenergic receptor in Wistar rat cerebral cortex membrane by liquid scintillation counting; format: tissue-based
T1 sequence (P22086 whole entry): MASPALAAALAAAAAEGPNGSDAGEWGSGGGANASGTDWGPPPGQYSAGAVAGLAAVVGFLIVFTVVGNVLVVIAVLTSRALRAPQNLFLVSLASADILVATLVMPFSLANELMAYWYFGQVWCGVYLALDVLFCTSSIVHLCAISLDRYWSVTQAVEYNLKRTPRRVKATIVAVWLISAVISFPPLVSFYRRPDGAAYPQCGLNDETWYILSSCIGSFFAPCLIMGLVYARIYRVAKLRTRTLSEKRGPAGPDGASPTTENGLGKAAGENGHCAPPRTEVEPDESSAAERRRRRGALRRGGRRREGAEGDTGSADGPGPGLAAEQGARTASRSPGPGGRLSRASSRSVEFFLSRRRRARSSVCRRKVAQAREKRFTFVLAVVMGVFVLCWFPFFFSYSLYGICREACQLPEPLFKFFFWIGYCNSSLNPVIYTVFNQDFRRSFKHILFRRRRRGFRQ
T1 sequence (P19328 whole entry): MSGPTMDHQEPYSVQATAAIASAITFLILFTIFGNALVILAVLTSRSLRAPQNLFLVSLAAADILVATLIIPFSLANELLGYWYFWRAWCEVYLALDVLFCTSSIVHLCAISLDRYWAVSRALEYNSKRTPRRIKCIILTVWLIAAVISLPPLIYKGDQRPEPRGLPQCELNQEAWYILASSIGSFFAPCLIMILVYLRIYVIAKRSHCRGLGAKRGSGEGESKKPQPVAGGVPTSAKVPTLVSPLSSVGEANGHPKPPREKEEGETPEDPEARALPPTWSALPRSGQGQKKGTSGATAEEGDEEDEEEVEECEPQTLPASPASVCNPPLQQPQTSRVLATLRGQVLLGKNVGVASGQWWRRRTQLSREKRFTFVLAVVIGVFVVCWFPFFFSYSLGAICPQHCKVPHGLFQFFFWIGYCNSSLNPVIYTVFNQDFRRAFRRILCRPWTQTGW
T1 sequence (P22909 whole entry): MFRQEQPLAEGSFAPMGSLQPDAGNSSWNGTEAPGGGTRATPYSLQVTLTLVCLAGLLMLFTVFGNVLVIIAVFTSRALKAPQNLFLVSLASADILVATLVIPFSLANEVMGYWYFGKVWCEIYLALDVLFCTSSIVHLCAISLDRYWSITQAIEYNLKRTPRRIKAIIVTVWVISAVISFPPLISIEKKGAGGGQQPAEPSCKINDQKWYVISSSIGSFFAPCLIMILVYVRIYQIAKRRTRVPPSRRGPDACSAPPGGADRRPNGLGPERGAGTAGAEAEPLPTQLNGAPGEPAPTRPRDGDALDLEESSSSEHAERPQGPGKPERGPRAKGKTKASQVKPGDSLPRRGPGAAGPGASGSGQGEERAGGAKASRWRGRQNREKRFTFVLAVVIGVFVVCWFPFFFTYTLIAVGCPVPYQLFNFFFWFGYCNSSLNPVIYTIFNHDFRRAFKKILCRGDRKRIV

[11] = Displacement of [3H]CGP12177 from beta-1 adrenergic receptor in Wistar rat cerebral cortex membrane by liquid scintillation counting; format: tissue-based
[12] = tested on: Rattus norvegicus; experiment: Effect on heart rate in anesthetized Wistar rat assessed as P-Q intervals time at 1 mg/kg, iv after 1 min by electrocardiography; format: functional
[13] = tested on: Rattus norvegicus; experiment: Effect on heart rate in anesthetized Wistar rat assessed as P-Q intervals time at 1 mg/kg, iv after 5 mins by electrocardiography; format: functional
[14] = tested on: Rattus norvegicus; experiment: Effect on heart rate in anesthetized Wistar rat assessed as P-Q intervals time at 1 mg/kg, iv after 15 mins by electrocardiography; format: functional

SMILES | Activity [1] | Activity [2] | Activity [3] | Activity [4] | Activity [5] | Activity [6] | Activity [7] | Activity [8] | ED50 [9] | Ki [10] | Ki [11] | Activity [12] | Activity [13] | Activity [14]
COc1ccccc1OCCNC[C@H](O)COc1ccc(OC)c2[nH]ccc12 | 25 ms | 24.5 ms | 22.5 ms | 78.8 ms | 94.8 ms | 292 bpm | 292.3 bpm | 275.9 bpm | 0.53 mg/kg | 277.2 nM | 59.3 nM | 58.5 ms | 56.7 ms | 53.3 ms
COc1ccccc1OCCNC[C@H](O)COc1c(OC)ccc2[nH]ccc12 | 26 ms | 28.7 ms | 28 ms | 107.3 ms | 111.3 ms | 388.1 bpm | 381 bpm | 367.6 bpm | 0.3 mg/kg | 60.9 nM | 887 nM | 48.7 ms | 46 ms | 46 ms
COc1ccccc1OCCNC[C@@H](O)COc1ccc(OC)c2[nH]ccc12 | 22.7 ms | 23.3 ms | 24.5 ms | 89.2 ms | 88 ms | 267.4 bpm | 259 bpm | 255.2 bpm | 0.38 mg/kg | 108.8 nM | 531 nM | 58.5 ms | 59.7 ms | 58 ms
COc1ccccc1OCCNC[C@@H](O)COc1c(OC)ccc2[nH]ccc12 | 28 ms | 28.7 ms | 28.7 ms | 106.7 ms | 106 ms | 395.5 bpm | 403.2 bpm | 387 bpm | 0.16 mg/kg | 43 nM | 3400 nM | 45.3 ms | 42.7 ms | 42 ms
COc1ccccc1OCCNCC(O)COc1ccc(OC)c2[nH]ccc12 (racemic) | 24.2 ms | 23 ms | 22.7 ms | 87.1 ms | 79.2 ms | 297.3 bpm | 292.2 bpm | 300 bpm | 0.45 mg/kg | 180.8 nM | 125 nM | 58.8 ms | 59.4 ms | 57.3 ms
COc1ccccc1OCCNCC(O)COc1c(OC)ccc2[nH]ccc12 (racemic) | 31.3 ms | 27.3 ms | 26 ms | 111.4 ms | 107.3 ms | 376.3 bpm | 372.9 bpm | 364.7 bpm | 0.38 mg/kg | 56.9 nM | 1600 nM | 48.7 ms | 51.3 ms | 48 ms
